# Source: patent publication US20080090756A1, “Somatostatin agonists” (The Administrators of the Tulane Educational Fund, priority 2001, published 2008)
# Bridge positions count the residues as written; N and C are the ends. Square brackets hold non-standard residues; d marks the D form. Peptide text beside a SMILES is read from it. dNMeW = CN[C@H](Cc1c[nH]c2ccccc12)C(=O)O; NMeY = CN[C@@H](Cc1ccc(O)cc1)C(=O)O; NMeF = CN[C@@H](Cc1ccccc1)C(=O)O; NMeT = CN[C@H](C(=O)O)[C@@H](C)O; NMeK = CN[C@@H](CCCCN)C(=O)O; NMeC = CN[C@@H](CS)C(=O)O
# Tests used:
# hSSTR-3 = target: T1, hSSTR-3 (Homo sapiens, UniProt P32745); assay: Radioligand binding assay, cloned human somatostatin receptor type 3; conditions: CHO-K1 cell membranes, displacement of [125I]Tyr11-SRIF; mean ± SEM, single values = one experiment; read-out: Kd ± SEM hsst3
# T1 construct: each containing the entire coding region of the full-length receptors; expressed in transfected cells
# Excerpt: (§1) Functional Expression of the Cloned Human Somatostatin Receptors. The genomic clones containing the human somatostatin receptors (hSSTR-1 to hSSTR-5) (Yamada, Y., et al. al., Proc. Natl. Acad. Sci. USA. 1992, 89, 251-255; Yasuda, K., et al., J. Biol. Chem. 1992, 267, 20422-20428; Yamada, Y., et al., Mol. Pharmacol. 1992, 42, 2136-2142; Rohrer, L., et al., Proc. Natl. Acad. Sci. USA. 1993, 90, 4196-4200.) were kindly provided by Dr. Graeme I. Bell of the University of Chicago. The hSSTR-1, hSSTR-2, hSSTR-3, hSSTR-4 and hSSTR-5 cDNAs were isolated as a 1.5-kb PstI-XmnI fragment, 1.7-kb BamHI-HindIII fragment, 2.0-kb NcoI-HindIII fragment, 1.4-kb NheI-NdeI fragment, and a 1.2-kb HindIII-XbaI fragment, respectively, each containing the entire coding region of the full-length receptors. These fragments were independently subcloned into the corresponding restriction endonuclease sites in the mammalian expression vector pCMV5, downstream from the human cytomegalovirus (CMV) promoter, to produce the expression plasmids pCMV5/hSSTR-1, pCMV5/hSSTR-2, pCMV5/hSSTR-3, pCMV5/hSSTR-4 and pCMV5/hSSTR-5. For transfection into CHO-K1 cells, a plasmid, pRSV-neo (American Type Culture Collection, Rockville, Md.), carrying the neomycin mammalian cell selectable marker was added.
# (§2) Receptor Expression and Transfection. Transfections were performed by the calcium phosphate method. CHO-K1 cells were maintained in α-minimum essential medium (α-MEM; Gibco) supplemented with 10% fetal calf serum and transfected with each of the expression plasmids using calcium phosphate precipitation. Clones that had inherited the expression plasmid were selected in α-MEM supplemented with 500 μg mL^−1 of geneticin (G418; Gibco). Independent CHO-K1 clones were picked by glass-ring cloning and expanded in culture in the selective media. Membranes were prepared from the isolated clones and hSSTR expression was initially assessed for binding with [^125I]Tyr^11-SRIF and [^125I]MK-678 (for SSTR-2).
# (§3) Radioligand Binding Assays. Cell membranes of the 5 cells types were obtained from homogenates (Polytron setting 6, 15 sec) of the corresponding CHO-K1 cells, in ice-cold Tris-HCl (50 mM) and centrifuged (39000 g, 10 min×2), with an intermediate resuspension in fresh buffer. The final pellets were resuspended in Tris-HCl (10 mM) for assay. Aliquots of the membranes were incubated (30 min at 37° C.) with 0.05 nM [^125I]Tyr^11-SRIF (types 1, 3, 4, 5) or [^125I]MK-678 (type 2) in […] (pH 7.4) containing BSA (10 mg mL^−1); MgCl2 (5 mM), Trasylol (200 kIU mL^−1), bacitracin (0.02 mg mL^−1), and phenylmethanesulfonyl fluoride (0.02 mg mL^−1). The final assay volume was 0.3 mL and incubations were terminated by rapid filtration through GF/C filters pre-soaked in 0.3% poly(ethylenimine) using a Brandel rapid filtration module. Each tube and filter was then washed with aliquots of cold buffer (3×5 mL).
# (§4) Specific binding is defined as the total radioligand bound minus that bound in the presence of 1.0 μM SRIF. The following total radioligand binding and non-specific binding (nsb) values were typically obtained with these assay systems: hSSTR-1, 7000 cpm total versus 3500 cpm nsb; hSSTR-2, 9000 cpm total versus 1000 cpm nsb; hSSTR-3, 8000 cpm total versus 1000 cpm nsb; hSSTR-4, 6000 cpm total versus 3500 cpm nsb; and hSSTR-5, 7500 cpm total versus 3500 cpm nsb. The binding affinities are expressed as Ki values ±SEM (nM) for each of the five receptor subtypes. Ki values derived for representative compounds of the instant invention are detailed in Table 2.
# (§5) The binding affinities (Kd, nM) of all SRIF analogues were determined using their concentration-dependent displacement of ^125I-radiolabeled peptide ligands from membranes isolated from CHO cells transfected with the corresponding human somatostatin receptor.
# hSSTR-2 = target: T2, hSSTR-2 (Homo sapiens, UniProt P30874); assay: Radioligand binding assay, cloned human somatostatin receptor type 2; conditions: CHO-K1 cell membranes, displacement of [125I]MK-678; mean ± SEM, single values = one experiment; read-out: Kd ± SEM hsst2
# T2 construct: each containing the entire coding region of the full-length receptors; expressed in transfected cells
# Excerpt: as §1, §2, §3, §4, §5
# hSSTR-5 = target: T3, hSSTR-5 (Homo sapiens, UniProt P35346); assay: Radioligand binding assay, cloned human somatostatin receptor type 5; conditions: CHO-K1 cell membranes, displacement of [125I]Tyr11-SRIF; mean ± SEM, single values = one experiment; read-out: Kd ± SEM hsst5
# T3 construct: each containing the entire coding region of the full-length receptors; expressed in transfected cells
# Excerpt: as §1, §2, §3, §4, §5
# hSSTR-1 = target: T4, hSSTR-1 (Homo sapiens, UniProt P30872); assay: Radioligand binding assay, cloned human somatostatin receptor type 1; conditions: CHO-K1 cell membranes, displacement of [125I]Tyr11-SRIF; mean ± SEM, single values = one experiment; read-out: Kd ± SEM hsst1
# T4 construct: each containing the entire coding region of the full-length receptors; expressed in transfected cells
# Excerpt: as §1, §2, §3, §4, §5
# hSSTR-4 = target: T5, hSSTR-4 (Homo sapiens, UniProt P31391); assay: Radioligand binding assay, cloned human somatostatin receptor type 4; conditions: CHO-K1 cell membranes, displacement of [125I]Tyr11-SRIF; mean ± SEM, single values = one experiment; read-out: Kd ± SEM hsst4
# T5 construct: each containing the entire coding region of the full-length receptors; expressed in transfected cells
# Excerpt: as §1, §2, §3, §4, §5
# T5 sequence (P31391 whole entry): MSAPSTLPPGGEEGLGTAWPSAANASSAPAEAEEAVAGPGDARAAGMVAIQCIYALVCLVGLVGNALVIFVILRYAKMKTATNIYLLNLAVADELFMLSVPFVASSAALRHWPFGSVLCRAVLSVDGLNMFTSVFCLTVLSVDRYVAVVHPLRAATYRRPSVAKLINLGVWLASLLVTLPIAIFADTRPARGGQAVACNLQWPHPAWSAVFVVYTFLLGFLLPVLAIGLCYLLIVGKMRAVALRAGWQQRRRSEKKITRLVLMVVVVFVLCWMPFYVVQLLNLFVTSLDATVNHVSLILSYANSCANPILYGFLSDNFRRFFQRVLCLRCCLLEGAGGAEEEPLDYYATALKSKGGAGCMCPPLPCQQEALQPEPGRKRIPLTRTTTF
# T4 sequence (P30872 whole entry): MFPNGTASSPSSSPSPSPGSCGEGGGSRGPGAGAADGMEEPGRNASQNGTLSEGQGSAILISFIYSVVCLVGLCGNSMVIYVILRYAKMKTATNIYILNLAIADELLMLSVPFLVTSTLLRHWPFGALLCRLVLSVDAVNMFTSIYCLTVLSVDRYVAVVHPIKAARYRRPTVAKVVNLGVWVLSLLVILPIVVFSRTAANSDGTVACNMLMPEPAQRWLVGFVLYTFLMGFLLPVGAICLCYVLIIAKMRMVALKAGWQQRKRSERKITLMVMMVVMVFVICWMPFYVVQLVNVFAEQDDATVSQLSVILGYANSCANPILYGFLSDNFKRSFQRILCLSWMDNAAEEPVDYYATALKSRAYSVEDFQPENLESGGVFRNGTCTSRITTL
# T1 sequence (P32745 whole entry): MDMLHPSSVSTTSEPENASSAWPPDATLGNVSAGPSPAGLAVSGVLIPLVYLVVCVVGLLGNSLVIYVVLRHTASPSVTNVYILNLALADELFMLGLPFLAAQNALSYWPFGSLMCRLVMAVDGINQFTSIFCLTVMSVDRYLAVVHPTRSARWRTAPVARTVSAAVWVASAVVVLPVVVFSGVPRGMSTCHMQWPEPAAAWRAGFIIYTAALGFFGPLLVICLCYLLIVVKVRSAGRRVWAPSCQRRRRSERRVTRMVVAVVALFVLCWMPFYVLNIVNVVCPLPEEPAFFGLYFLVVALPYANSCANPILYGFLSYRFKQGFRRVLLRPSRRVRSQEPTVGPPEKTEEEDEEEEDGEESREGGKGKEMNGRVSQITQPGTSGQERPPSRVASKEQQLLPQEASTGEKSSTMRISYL
# T2 sequence (P30874 whole entry): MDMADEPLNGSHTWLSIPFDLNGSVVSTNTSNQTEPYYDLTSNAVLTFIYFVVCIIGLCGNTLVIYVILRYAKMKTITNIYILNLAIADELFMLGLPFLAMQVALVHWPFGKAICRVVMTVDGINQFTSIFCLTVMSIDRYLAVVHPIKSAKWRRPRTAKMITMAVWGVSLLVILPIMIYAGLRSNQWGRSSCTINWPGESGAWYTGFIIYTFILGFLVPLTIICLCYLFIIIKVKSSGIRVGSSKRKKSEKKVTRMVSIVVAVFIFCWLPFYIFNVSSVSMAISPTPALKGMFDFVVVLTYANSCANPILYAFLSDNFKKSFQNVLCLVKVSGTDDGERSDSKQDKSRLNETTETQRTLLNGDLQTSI
# T3 sequence (P35346 whole entry): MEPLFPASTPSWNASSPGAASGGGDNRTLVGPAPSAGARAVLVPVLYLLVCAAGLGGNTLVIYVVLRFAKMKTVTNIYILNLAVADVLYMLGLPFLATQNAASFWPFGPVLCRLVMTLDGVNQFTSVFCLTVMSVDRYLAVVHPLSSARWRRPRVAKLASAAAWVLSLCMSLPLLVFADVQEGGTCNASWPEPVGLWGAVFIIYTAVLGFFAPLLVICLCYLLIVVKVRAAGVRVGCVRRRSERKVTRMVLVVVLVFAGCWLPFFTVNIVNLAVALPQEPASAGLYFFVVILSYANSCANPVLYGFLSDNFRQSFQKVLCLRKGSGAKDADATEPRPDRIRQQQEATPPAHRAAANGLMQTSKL
smiles,measurement,setting,value
"CN[C@H](Cc1ccccc1)C(=O)N[C@H]1CSSC[C@@H](C(=O)N[C@H](C(N)=O)[C@@H](C)O)NC(=O)[C@H]([C@@H](C)O)NC(=O)[C@H](CCCCN)NC(=O)[C@@H](Cc2c[nH]c3ccccc23)NC(=O)[C@H](Cc2ccccc2)NC1=O [Example 1, NMeDPhe-cyclo(Cys-Phe-DTrp-Lys-Thr-Cys)-Thr-NH2]",Kd,hSSTR-3,17.9 ± 2.5 nM
same,Kd,hSSTR-2,1.03 ± 0.26 nM
same,Kd,hSSTR-5,4.89 ± 1.4 nM
same,Kd,hSSTR-1,316 ± 11 nM
"C[C@@H](O)[C@H](NC(=O)[C@@H]1CSSC[C@H](NC(=O)[C@H](N)Cc2ccccc2)C(=O)N(C)[C@@H](Cc2ccccc2)C(=O)N[C@H](Cc2c[nH]c3ccccc23)C(=O)N[C@@H](CCCCN)C(=O)N[C@@H]([C@@H](C)O)C(=O)N1)C(N)=O [Example 3, DPhe-cyclo(Cys-NMePhe-DTrp-Lys-Thr-Cys)-Thr-NH2]",Kd,hSSTR-3,830 ± 86 nM
same,Kd,hSSTR-2,13.2 ± 3.85 nM
same,Kd,hSSTR-4,> 1000 nM
same,Kd,hSSTR-1,> 1000 nM
"C[C@@H](O)[C@H](NC(=O)[C@@H]1CSSC[C@H](NC(=O)[C@H](N)Cc2ccccc2)C(=O)N[C@@H](Cc2ccccc2)C(=O)N[C@H](Cc2c[nH]c3ccccc23)C(=O)N(C)[C@@H](CCCCN)C(=O)N[C@@H]([C@@H](C)O)C(=O)N1)C(N)=O [Example 5, DPhe-cyclo(Cys-Phe-DTrp-NMeLys-Thr-Cys)-Thr-NH2]",Kd,hSSTR-2,1.84 ± 0.21 nM
same,Kd,hSSTR-4,> 1000 nM
"C[C@@H](O)[C@@H]1NC(=O)[C@H](CCCCN)NC(=O)[C@@H](Cc2c[nH]c3ccccc23)NC(=O)[C@H](Cc2ccccc2)NC(=O)[C@@H](NC(=O)[C@H](N)Cc2ccccc2)CSSC[C@@H](C(=O)N(C)[C@H](C(N)=O)[C@@H](C)O)NC1=O [Example 8, DPhe-cyclo(Cys-Phe-DTrp-Lys-Thr-Cys)-NMeThr-NH2]",Kd,hSSTR-3,124 ± 11.7 nM
same,Kd,hSSTR-2,14.8 ± 1.53 nM
same,Kd,hSSTR-4,182 nM
same,Kd,hSSTR-1,> 1000 nM
"C[C@@H](O)[C@H](NC(=O)[C@@H]1CSSC[C@H](NC(=O)[C@H](N)Cc2ccccc2)C(=O)N[C@@H](Cc2ccccc2)C(=O)N[C@H](Cc2c[nH]c3ccccc23)C(=O)N[C@@H](CCCCN)C(=O)N[C@@H]([C@@H](C)O)C(=O)N1)C(N)=O [Example 9, DPhe-cyclo(Cys-Phe-DTrp-Lys-Thr-Cys)-Thr-NH2]",Kd,hSSTR-3,11.8 ± 0.9 nM
same,Kd,hSSTR-2,0.15 ± 0.08 nM
same,Kd,hSSTR-4,> 1000 nM
same,Kd,hSSTR-1,761 nM
"CN[C@@H](Cc1ccc(O)cc1)C(=O)N[C@H]1CSSC[C@@H](C(=O)N[C@H](C(N)=O)[C@@H](C)O)NC(=O)[C@H]([C@@H](C)O)NC(=O)[C@H](CCCCN)NC(=O)[C@@H](Cc2c[nH]c3ccccc23)NC(=O)[C@H](Cc2ccccc2)NC1=O [Example 10, NMeTyr-cyclo(Cys-Phe-DTrp-Lys-Thr-Cys)-Thr-NH2] (H-[NMeY]CF[dW]KTCT-NH2; disulfide 2-7; N-terminus assumed)",Kd,hSSTR-2,9.74 ± 1.87 nM
same,Kd,hSSTR-1,811 ± 188 nM
"C[C@@H](O)[C@H](NC(=O)[C@@H]1CSSC[C@H](N(C)C(=O)[C@@H](N)Cc2ccc(O)cc2)C(=O)N[C@@H](Cc2ccccc2)C(=O)N[C@H](Cc2c[nH]c3ccccc23)C(=O)N[C@@H](CCCCN)C(=O)N[C@@H]([C@@H](C)O)C(=O)N1)C(N)=O [Example 11, Tyr-cyclo(NMeCys-Phe-DTrp-Lys-Thr-Cys)-Thr-NH2] (H-Y[NMeC]F[dW]KTCT-NH2; disulfide 2-7; N-terminus assumed)",Kd,hSSTR-3,2.73 ± 2.43 nM
same,Kd,hSSTR-2,8.96 ± 1.66 nM
same,Kd,hSSTR-5,114 nM
"C[C@@H](O)[C@H](NC(=O)[C@@H]1CSSC[C@H](NC(=O)[C@@H](N)Cc2ccc(O)cc2)C(=O)N(C)[C@@H](Cc2ccccc2)C(=O)N[C@H](Cc2c[nH]c3ccccc23)C(=O)N[C@@H](CCCCN)C(=O)N[C@@H]([C@@H](C)O)C(=O)N1)C(N)=O [Example 12, Tyr-cyclo(Cys-NMePhe-DTrp-Lys-Thr-Cys)-Thr-NH2] (H-YC[NMeF][dW]KTCT-NH2; disulfide 2-7; N-terminus assumed)",Kd,hSSTR-3,94.2 ± 16.7 nM
same,Kd,hSSTR-1,653 ± 245 nM
"C[C@@H](O)[C@H](NC(=O)[C@@H]1CSSC[C@H](NC(=O)[C@@H](N)Cc2ccc(O)cc2)C(=O)N[C@@H](Cc2ccccc2)C(=O)N(C)[C@H](Cc2c[nH]c3ccccc23)C(=O)N[C@@H](CCCCN)C(=O)N[C@@H]([C@@H](C)O)C(=O)N1)C(N)=O [Example 13, Tyr-cyclo(Cys-Phe-NMeDTrp-Lys-Thr-Cys)-Thr-NH2] (H-YCF[dNMeW]KTCT-NH2; disulfide 2-7; N-terminus assumed)",Kd,hSSTR-2,120 ± 22.2 nM
same,Kd,hSSTR-1,1000 nM
"C[C@@H](O)[C@H](NC(=O)[C@@H]1CSSC[C@H](NC(=O)[C@@H](N)Cc2ccc(O)cc2)C(=O)N[C@@H](Cc2ccccc2)C(=O)N[C@H](Cc2c[nH]c3ccccc23)C(=O)N(C)[C@@H](CCCCN)C(=O)N[C@@H]([C@@H](C)O)C(=O)N1)C(N)=O [Example 14, Tyr-cyclo(Cys-Phe-DTrp-NMeLys-Thr-Cys)-Thr-NH2] (H-YCF[dW][NMeK]TCT-NH2; disulfide 2-7; N-terminus assumed)",Kd,hSSTR-3,51 ± 6.93 nM
same,Kd,hSSTR-2,14.2 ± 3.12 nM
same,Kd,hSSTR-1,956 ± 43 nM
"C[C@@H](O)[C@H](NC(=O)[C@@H]1CSSC[C@H](NC(=O)[C@@H](N)Cc2ccc(O)cc2)C(=O)N[C@@H](Cc2ccccc2)C(=O)N[C@H](Cc2c[nH]c3ccccc23)C(=O)N[C@@H](CCCCN)C(=O)N[C@@H]([C@@H](C)O)C(=O)N1C)C(N)=O [Example 16, Tyr-cyclo(Cys-Phe-DTrp-Lys-Thr-NMeCys)-Thr-NH2] (H-YCF[dW]KT[NMeC]T-NH2; disulfide 2-7; N-terminus assumed)",Kd,hSSTR-4,321 nM
same,Kd,hSSTR-1,1260 nM
"C[C@@H](O)[C@@H]1NC(=O)[C@H](CCCCN)NC(=O)[C@@H](Cc2c[nH]c3ccccc23)NC(=O)[C@H](Cc2ccccc2)NC(=O)[C@@H](NC(=O)[C@@H](N)Cc2ccc(O)cc2)CSSC[C@@H](C(=O)N(C)[C@H](C(N)=O)[C@@H](C)O)NC1=O [Example 17, Tyr-cyclo(Cys-Phe-DTrp-Lys-Thr-Cys)-NMeThr-NH2] (H-YCF[dW]KTC[NMeT]-NH2; disulfide 2-7; N-terminus assumed)",Kd,hSSTR-3,535 ± 200 nM
same,Kd,hSSTR-2,26.2 ± 10.3 nM
same,Kd,hSSTR-4,353 nM
same,Kd,hSSTR-1,611 ± 3.5 nM
"C[C@@H](O)[C@H](NC(=O)[C@@H]1CSSC[C@H](NC(=O)[C@@H](N)Cc2ccc(O)cc2)C(=O)N[C@@H](Cc2ccccc2)C(=O)N[C@H](Cc2c[nH]c3ccccc23)C(=O)N[C@@H](CCCCN)C(=O)N[C@@H]([C@@H](C)O)C(=O)N1)C(N)=O [Example 18, Tyr-cyclo(Cys-Phe-DTrp-Lys-Thr-Cys)-Thr-NH2] (H-YCF[dW]KTCT-NH2; disulfide 2-7; N-terminus assumed)",Kd,hSSTR-3,18.2 ± 4.21 nM
same,Kd,hSSTR-2,10.3 ± 3.53 nM
same,Kd,hSSTR-1,1000 nM
